Test results reported in PMC7456776, “The utility of a differentiated preclinical liver model, HepaRG cells, in investigating delayed toxicity via inhibition of mitochondrial-replication induced by fialuridine” (Toxicology and Applied Pharmacology, 2020).
“Also recorded” adds a separate entry of the source. Like-named read-outs stand apart in the source and are kept apart here.

Legend:
HepaRG cells [1] = experiment: Metabolic modification assay: dual ATP and cell viability (total cellular protein) assessment, extended dosing; assay type: cell-based, human
Experimental: In accordance with Biopredic international guidelines, undifferentiated HepaRG cells were seeded into clear flat bottomed 96 well (9000 cells/well) or Seahorse plates (4000 cells/well). They were grown for two weeks in growth media before their differentiation over 2 further weeks in differentiation media. Cells were kept at 37 °C, 5% CO2 in a humidified environment and received fresh, appropriate media twice a week. The fully differentiated cells were then used over the following four-week period, whilst being maintained in differentiation media. All experiments were performed using cells at passage number < 20.
(§1) Differentiated HepaRG cells were treated with 0–300 μM final concentrations of FIAU (1–4 weeks). FIAU was replaced in fresh differentiation media every 3–4 days. The final concentration of DMSO was at a constant 0.5% v/v in both HepaRG and HepG2 treatments. In all experiments dosing was performed in glucose supplemented media.
This was performed as previously described ([Kamalian et al., 2018]). […] IC50 values were calculated using Prism (GraphPad, California, USA) (Table 1) and criteria applied to identify a compound as a direct mitochondrial toxin.
Each experiment was performed on three or more independent occasions (n ≥ 3). IC50 values were calculated using GraphPad Prism 7 software, and were expressed as a mean ± standard deviation (SD). For all other statistical analysis comparing the values obtained from treated cells to vehicle control an ANOVA was performed, with a Dunnett or Tukey post hoc analysis where appropriate. P values lower than 0.05 were considered as statistically significant for both tests.

HepaRG cells [2] = experiment: Seahorse XFe mitochondrial stress test (oxygen consumption, extracellular acidification); assay type: cell-based, human
Experimental: (§2) Briefly, following the dosing period, media was switched to unbuffered XF basal medium (175 μl, pH 7.4) supplemented with glucose (25 mM), L-glutamine (2 mM) and sodium pyruvate (1 mM) before incubating in a CO2 free incubator (37 °C). Oxygen consumption was measured by Seahorse XFe96 according to the previously described protocol ([Kamalian et al., 2018]).

[3] = design: method as in Bowsher et al., 1994; details: healthy volunteers, 5 mg single dose; ref Bowsher et al., 1994; cited from earlier work
[4] = tested on: mitochondrial respiratory complexes I, II, IV in permeabilised HepaRG cells; experiment: In-situ mito substrate assay of individual respiratory complex activity in permeabilised cells (Seahorse); assay type: cell-based, human; details: 12 μM
Source text: The assessment of individual mitochondrial complex activity was preformed using the in-situ mito substrate assay in permeabilised cells using Seahorse Technology as previously described ([Ball et al., 2016]).

HepaRG cells [5] = experiment: Cellular steatosis by Oil Red O staining; assay type: cell-based, human; details: 12 μM, 4 weeks
Experimental: Following drug treatment cells were washed twice in PBS and fixed in 4% paraformaldehyde (1 h, RT). Cells were then washed twice in ddH2O and incubated in isopropanol (IPA, 60% v/v, 5 min). Oil red O working solution (3:2 in ddH2O from the stock solution of 0.33% w/v in 100% IPA) was applied to the cells for 20 min. Background staining was removed by several washes with ddH2O and a 5 min wash in 60% v/v IPA. The intracellular lipid was extracted by 100% IPA after the wells were dried. The lipid content was quantified by reading the optical density at 540 nm on a Varioskan Flash (Thermo Fisher Scientific, USA).

PHH spheroids = tested on: PHH spheroids; design: method as in Bell et al., 2016; details: 3D PHH spheroids, 7 days; ref Bell et al., 2016; cited from earlier work
HepaRG cells [6] = experiment: Mitochondrial DNA content by real-time PCR (MT-ND1 normalised to RNase P); assay type: cell-based, human
Experimental: (§3) DNA was extracted via QIAamp DNA Mini Kit (Qiagen, Crawley, UK). Relative levels of mtDNA copy number were determined by real-time pre-designed PCR Taqman detection kits designed to target the mitochondrial MT-ND1 gene and the nuclear RNase P gene, using TAQMAN GT Master Mix. PCR reactions were performed according to standard conditions for TaqMan: 95 °C for 10 min; 40 cycles at (95 °C 15 s, 60 °C 1 min). PCR assays were performed in duplicate for each DNA sample. Analysis was undertaken with mitochondrial ND-1 normalised to genomic RNase P and treated sample to the appropriate vehicle.

HepG2 cells [7] = experiment: Seahorse XFe mitochondrial stress test; assay type: cell-based, human; details: HepG2, 1.3–100 μM, up to 72 h
Experimental: as §2
Figure Supp 4: The effect of FIAU on mitochondrial respiratory activity of HepG2 cells. The bioenergetic parameters of HepG2 cells following exposure to FIAU (12 µM) were calculated using Seahorse respirometry at 48 h (black bar) and 72 h (grey bar). All results are presented as % of vehicle control. Key: dashed line marks vehicle control at 100 %. n=3.

HepG2 cells [8] = experiment: Metabolic modification assay: ATP and total cellular protein, 72 h; assay type: cell-based, human; details: for Total cellular protein, % of vehicle control: HepG2, 300 μM, 3 days
Experimental: HepG2 cells were cultured and maintained in DMEM media as described previously ([Kamalian et al., 2015]).
as §1
This was performed as previously described ([Kamalian et al., 2018]). Briefly, following the dosing period, media was switched to either “glucose” or “galactose” media for 2 h prior to measuring cellular ATP content and lactate dehydrogenase (LDH) release as a marker of cell viability, both normalised to protein content. IC50 values were calculated using Prism (GraphPad, California, USA) (Table 1) and criteria applied to identify a compound as a direct mitochondrial toxin.

HepaRG cells [9] = details: human, 12 μM
Experimental: Samples were prepared for transmission electron microscopy (TEM) in 3 cm dishes as follows. Cells were fixed in 2.5% (w/v) glutaraldehyde in 0.1 M phosphate buffer (pH 7.4) before staining with reduced osmium (2% (w/v) OsO4, 1.5% (w/v) potassium ferrocyanide in ddH2O), 1% (w/v) thiocarbohydrazide, 2% OsO4 (w/v in ddH20), then 1% (w/v) aqueous uranyl acetate overnight at 4 °C. The next day samples were finally stained with Walton's lead aspartate (0.02 M lead nitrate, 0.03 M aspartic acid, pH 5.5). To prevent precipitation artefacts the cells were washed copiously with ddH2O between each staining step. […] Dehydration was in a graded ethanol series before filtration and embedding in medium premix resin (TAAB, Reading, UK).
For TEM, 70–74 nm serial sections were cut using a UC6 ultra microtome (Leica Microsystems, Wetzlar, Germany) and collected on Formvar (0.25% (w/v) in chloroform, TAAB, Reading, UK) coated Gilder 200 mesh copper grids (GG017/C, TAAB, Reading, UK). […]
Resultant TEM images were analysed using Image J software to measure intracellular mitochondrial features (NIH, USA). […] In brief, total mitochondria number per cell was counted as well as mitochondria area (μM^2) alongside cytosol area (calculated as total cell area minus nuclear area and vacuole area μM^2).

HepaRG cells [10] = experiment: Cellular L-lactate release; assay type: cell-based, human; details: 12 μM, four-week exposure
Experimental: Following incubation with drug the media from cells was transferred to a fresh 96-well plate and L-lactate levels were measured using an L-lactate assay kit as per the manufacturer's instructions.

HepG2 cells [11] = experiment: Mitochondrial DNA content by real-time PCR; assay type: cell-based, human; details: HepG2, 1.3–100 μM, up to 72 h
Experimental: as §3
Figure Supp 3: Mitochondrial DNA content in HepG2 cells exposed to FIAU (48 and 72 h). MtDNA content was measured by real-time PCR. HepG2 cells were exposed to FIAU (10 and 100 µM) at 48 h (black bar) and 72 h (grey bar). All results are presented as % of vehicle control. n=3.

HepG2 cells [12] = tested on: HepG2 cells; design: method as in Colacino et al., 1994; details: 9 days, 30 μM, ref Colacino et al., 1994; cited from earlier work
HepG2 cells [13] = tested on: HepG2 cells; design: method as in Colacino et al., 1994; details: 6 days of treatment, ref Colacino et al., 1994; cited from earlier work
patients = tested on: patients; design: method as in McKenzie et al., 1995; details: ref McKenzie et al., 1995, cited from earlier work

O=c1[nH]c(=O)n([C@@H]2O[C@H](CO)[C@@H](O)[C@H]2F)cc1I [FIAM]
Cytotoxic effects (HepaRG cells [1]; HepaRG cells, up to 4 weeks): no cytotoxic effects
Cellular ATP content or cell viability compared to vehicle control (HepaRG cells [1]; HepaRG, 4-week incubation period): no significant differences; also recorded: did not induce any decrease
Mitochondrial respiration (HepaRG cells [2]; 2 weeks, 12 μM and up to 100 μM): did not reduce mitochondrial respiration

O=c1[nH]c(=O)n([C@@H]2O[C@H](CO)[C@@H](O)[C@@H]2F)cc1I [FIAU, fialuridine]
Cmax [3]: 0.6 µM
Complex I activity, % of vehicle control ([4]; 2 weeks): 26.9 ± 6.9%
Complex II activity, % of vehicle control ([4]; 2 weeks): 35.5 ± 17.7%
Complex IV activity, % of vehicle control ([4]; 2 weeks): 36.0 ± 15.9%
Complex I activity, % of vehicle control ([4]; week 1): 67.4 ± 13.5%
Complex II activity, % of vehicle control ([4]; week 1): 70.3 ± 9.8%
Accumulation of intracellular lipids (oil red O) (HepaRG cells [5]): no accumulation of intracellular lipids
IC50 (PHH spheroids): 0.7 µM
mtDNA content, % of vehicle control (HepaRG cells [6]; 4 μM, week 1): 59.2 ± 26.5%
mtDNA content, % of vehicle control (HepaRG cells [6]; 10 μM, 1 week): 23.5 ± 11.9%
mtDNA content, % of vehicle control (HepaRG cells [6]; 10 μM, 4 weeks): 5.8 ± 3.0%
Bioenergetic parameters (HepG2 cells [7]): no significant differences in bioenergetic parameters
Total cellular protein, % of vehicle control (HepG2 cells [8]; galactose media): 40.5 ± 13.4%
Total cellular protein, % of vehicle control (HepG2 cells [8]; glucose media): 49.0 ± 22.7%
Classification as mitotoxin (HepG2 cells [8]; HepG2 cells, up to 3 days): cannot be classified as a mitotoxin
Individual mean mitochondrial area (HepaRG cells [9]): 0.19 ± 0.01 μm^2
Number of mitochondria (HepaRG cells [9]): 0.80 ± 0.20 mitochondria/μm^2 of cytosol
Concentration at which toxic effects were observed (HepaRG cells [1]; HepaRG, extended dosing, 2 weeks): around 10 μM
IC50 (HepaRG cells [1]; HepaRG, wk 3 exposure, galactose media, read-out: IC50-ATP ± S.D., Galactose): 5.7 ± 2.8 µM
IC50 (HepaRG cells [1]; Homo sapiens, HepaRG, wk 1, galactose media, total cellular protein, read-out: IC50-viability ± S.D., Galactose): 101 ± 27 µM
IC50 (HepaRG cells [1]; Homo sapiens, HepaRG, wk 1, glucose media, total cellular protein, read-out: IC50-viability ± S.D., Glucose): 118 ± 42 µM
IC50 (HepaRG cells [1]; Homo sapiens, HepaRG, wk 1 exposure, galactose media, read-out: IC50-ATP ± S.D., Galactose): 103 ± 13.8 µM
IC50 (HepaRG cells [1]; Homo sapiens, HepaRG, wk 1 exposure, glucose media, read-out: IC50-ATP ± S.D., Glucose): 112 ± 32.8 µM
IC50 (HepaRG cells [1]; Homo sapiens, HepaRG, wk 2, galactose media, total cellular protein, read-out: IC50-viability ± S.D., Galactose): 7.3 ± 3.8 µM
IC50 (HepaRG cells [1]; Homo sapiens, HepaRG, wk 2, glucose media, total cellular protein, read-out: IC50-viability ± S.D., Glucose): 26.1 ± 9.3 µM
IC50 (HepaRG cells [1]; Homo sapiens, HepaRG, wk 2 exposure, glucose media, read-out: IC50-ATP ± S.D., Glucose): 16.8 ± 2.3 µM
IC50 (HepaRG cells [1]; Homo sapiens, HepaRG, wk 3, galactose media, total cellular protein, read-out: IC50-viability ± S.D., Galactose): 15.5 ± 3.4 µM
IC50 (HepaRG cells [1]; Homo sapiens, HepaRG, wk 3, glucose media, total cellular protein, read-out: IC50-viability ± S.D., Glucose): 14.2 ± 1.3 µM
IC50 (HepaRG cells [1]; Homo sapiens, HepaRG, wk 3 exposure, galactose media, read-out: IC50-ATP ± S.D., Galactose): 5 µM
IC50 (HepaRG cells [1]; Homo sapiens, HepaRG, wk 3 exposure, glucose media, read-out: IC50-ATP ± S.D., Glucose): 5.4 ± 2.3 µM
IC50 (HepaRG cells [1]; Homo sapiens, HepaRG, wk 4, galactose media, total cellular protein, read-out: IC50-viability ± S.D., Galactose): 3.6 ± 2.8 µM
IC50 (HepaRG cells [1]; Homo sapiens, HepaRG, wk 4, glucose media, total cellular protein, read-out: IC50-viability ± S.D., Glucose): 7.6 ± 3.3 µM
IC50 (HepaRG cells [1]; Homo sapiens, HepaRG, wk 4 exposure, galactose media, read-out: IC50-ATP ± S.D., Galactose): 7.3 ± 0.5 µM
IC50 (HepaRG cells [1]; Homo sapiens, HepaRG, wk 4 exposure, glucose media, read-out: IC50-ATP ± S.D., Glucose): 4.9 ± 1.5 µM
Extracellular L-lactate in cell supernatant (HepaRG cells [10]): no significant increase in L-lactate
Mitochondrial copy number (HepG2 cells [11]): no significant differences in mitochondrial copy number
mtDNA replication (HepG2 cells [12]): decreases
TC50 (Toxicity Concentration) (HepG2 cells [13]): 35 µM
Parameters of oxygen consumption (BR, ALR, MR, SRC, PL, CE) (HepaRG cells [2]; 12 μM, 1 week): no significant changes
ATP-linked respiration (ALR), % of vehicle control (HepaRG cells [2]; 12 μM, 2 weeks): 77.4 ± 21.5%
Basal respiration (BR), % of vehicle control (HepaRG cells [2]; 12 μM, 2 weeks): 85.7 ± 28.1%
Maximal respiration (MR), % of vehicle control (HepaRG cells [2]; 12 μM, 2 weeks): 72.0 ± 19.1%
Proton leak (PL) and coupling efficiency (CE) (HepaRG cells [2]; 12 μM, 2 weeks): remained unchanged
Spare respiratory capacity (SRC), % of vehicle control (HepaRG cells [2]; 12 μM, 2 weeks): 65.9 ± 15.5%
Extracellular acidification rate (HepaRG cells [2]; over 2 weeks of treatment): no dose- or time-dependent increases
Adverse effects in clinical trial (patients; extended trial period): five deaths from acute liver failure
Time at which toxicity became apparent (patients; week of treatment): > 13 week
